Source: publication PMC3166973 (Journal of structural biology, 2011)
Positions count from the first letter of the chain named. Numbers in names are those of the source.

Experiments:
[1] = biological target: T1, hDHFR Q35S/N64F (Homo sapiens, UniProt P00374, N65F/Q36S); test: Standard DHFR assay, kinetic constants; assay type: biochemical; conditions: read-out: Km NADPH
T1 sequence (P00374 1-187 Q36S/N65F): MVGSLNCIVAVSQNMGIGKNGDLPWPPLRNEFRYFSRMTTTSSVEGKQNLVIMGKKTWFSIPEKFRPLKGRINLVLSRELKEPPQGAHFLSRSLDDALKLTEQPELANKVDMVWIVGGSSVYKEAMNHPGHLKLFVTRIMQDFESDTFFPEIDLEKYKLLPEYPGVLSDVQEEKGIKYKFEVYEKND

[2] = biological target: T2, pjDHFR (Pneumocystis jirovecii, UniProt Q9UUP5); test: Standard DHFR assay; conditions: read-out: Km NADPH, substrate at saturating concentration
T2 sequence (Q9UUP5 1-206): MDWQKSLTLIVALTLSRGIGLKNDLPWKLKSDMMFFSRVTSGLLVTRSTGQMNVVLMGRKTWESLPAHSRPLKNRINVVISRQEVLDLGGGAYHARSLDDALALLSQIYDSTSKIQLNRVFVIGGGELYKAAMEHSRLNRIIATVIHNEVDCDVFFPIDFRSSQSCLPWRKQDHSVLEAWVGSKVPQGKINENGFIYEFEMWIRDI

[3] = biological target: T3, hDHFR Q35S/N64S (Homo sapiens, UniProt P00374, N65S/Q36S); test: Standard DHFR assay, kinetic constants; assay type: biochemical; conditions: read-out: Km NADPH
T3 sequence (P00374 1-187 Q36S/N65S): T1 sequence (P00374 1-187 Q36S/N65F) with F65S

[4] = biological target: T4, hDHFR Q35S (Homo sapiens, UniProt P00374, Q36S); test: Standard DHFR assay, kinetic constants; assay type: biochemical; conditions: read-out: Km NADPH
T4 sequence (P00374 1-187 Q36S): T1 sequence (P00374 1-187 Q36S/N65F) with F65N

[5] = biological target: T5, hDHFR Q35K (Homo sapiens, UniProt P00374, Q36K); test: Standard DHFR assay, kinetic constants; assay type: biochemical; conditions: read-out: Km NADPH
T5 sequence (P00374 1-187 Q36K): T1 sequence (P00374 1-187 Q36S/N65F) with S36K, F65N

[6] = biological target: T6, hDHFR N64S (Homo sapiens, UniProt P00374, N65S); test: Standard DHFR assay, kinetic constants; assay type: biochemical; conditions: read-out: Km NADPH
T6 sequence (P00374 1-187 N65S): T1 sequence (P00374 1-187 Q36S/N65F) with S36Q, F65S

[7] = biological target: T7, hDHFR Q35K/N64S (Homo sapiens, UniProt P00374, N65S/Q36K); test: Standard DHFR assay, kinetic constants; assay type: biochemical; conditions: read-out: Km NADPH
T7 sequence (P00374 1-187 Q36K/N65S): T1 sequence (P00374 1-187 Q36S/N65F) with S36K, F65S

[8] = biological target: pcDHFR (Pneumocystis carinii, UniProt P16184); assay type: biochemical; conditions: read-out: Km NADPH
[9] = biological target: T8, hDHFR (Homo sapiens, UniProt P00374); test: Standard DHFR assay, kinetic constants; assay type: biochemical; conditions: read-out: Km NADPH; wild type hDHFR
T8 sequence (P00374 1-187): T1 sequence (P00374 1-187 Q36S/N65F) with S36Q, F65N

[10] = biological target: T9, hDHFR Q35K/N64F (Homo sapiens, UniProt P00374, N65F/Q36K); test: Standard DHFR assay, kinetic constants; assay type: biochemical; conditions: read-out: Km NADPH
T9 sequence (P00374 1-187 Q36K/N65F): T1 sequence (P00374 1-187 Q36S/N65F) with S36K

[11] = biological target: T10, hDHFR N64F (Homo sapiens, UniProt P00374, N65F); test: Standard DHFR assay, kinetic constants; assay type: biochemical; conditions: read-out: Km NADPH
T10 sequence (P00374 1-187 N65F): T1 sequence (P00374 1-187 Q36S/N65F) with S36Q

[12] = substrate: Nc1nc2c(c(=O)[nH]1)N=C(CNc1ccc(C(=O)N[C@@H](CCC(=O)O)C(=O)O)cc1)CN2; test: purified protein, by the assay type; conditions: pH 7.4

pcDHFR, sequence (P16184 whole entry): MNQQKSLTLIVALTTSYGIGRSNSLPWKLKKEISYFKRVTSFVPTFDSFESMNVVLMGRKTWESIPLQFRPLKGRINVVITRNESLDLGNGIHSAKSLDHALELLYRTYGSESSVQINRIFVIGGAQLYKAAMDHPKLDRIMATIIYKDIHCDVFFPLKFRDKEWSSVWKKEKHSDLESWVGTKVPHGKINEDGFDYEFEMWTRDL

**Q.** Which results are given for `NC(=O)C1=CN([C@@H]2O[C@H](COP(=O)(O)OP(=O)(O)OC[C@H]3O[C@@H](n4cnc5c(N)ncnc54)[C@H](OP(=O)(O)O)[C@@H]3O)[C@@H](O)[C@H]2O)C=CC1` [NADPH]?
**A.** Km [1]: 5.6 ± 0.5 µM; Km [2]: 19 ± 1 µM; Km [3]: 5.3 ± 1.5 µM; Km [4]: 3.8 ± 1.4 µM; Km [5]: 12.5 µM; Km [6]: 6.3 µM; Km [7]: 6.6 ± 1.8 µM; Km [8]: 16 ± 2 µM; Km [9]: 4.5 ± 1.2 µM; Km [10]: 5.7 ± 1.1 µM; Km [11]: 7.5 ± 3.1 µM

B1: pjDHFR (Pneumocystis jirovecii) (protein)
chain: T2 sequence (Q9UUP5 1-206)
**Q.** How did the Km ([12]; other: pjDHFR, cofactor at saturating concentration) turn out when B1 was run?
**A.** Its Km is 2.2 ± 0.2^1 (n=13) μM.

B2: hDHFR Q35K/N64S (Homo sapiens; N65S/Q36K) (protein)
chain: T1 sequence (P00374 1-187 Q36S/N65F) with S36K, F65S
**Q.** How did the Km ([12]; other: hDHFR Q35K/N64S, 37.0 °C) turn out when B2 was run?
**A.** The Km was 0.7 ± 0.2 (n=6) μM.

B3: hDHFR N64S (Homo sapiens; N65S) (protein)
chain: T1 sequence (P00374 1-187 Q36S/N65F) with S36Q, F65S
**Q.** Which Km ([12]; other: hDHFR N64S, 37.0 °C) does the source give for B3 here?
**A.** The Km was 0.9 ± 0.3 (n=3) μM.

B4: hDHFR Q35S/N64F (Homo sapiens; N65F/Q36S) (protein)
chain: T1 sequence (P00374 1-187 Q36S/N65F)
**Q.** With B4 as the molecule, how does the Km ([12]; other: hDHFR Q35S/N64F, 37.0 °C) read?
**A.** The Km was 0.7 ± 0.2 (n=5) μM.

B5: hDHFR (Homo sapiens) (protein)
chain: T1 sequence (P00374 1-187 Q36S/N65F) with S36Q, F65N
**Q.** With B5 as the molecule, how does the Km ([12]; other: wild type hDHFR, 37.0 °C) read?
**A.** The Km was 0.7 ± 0.1 (n=8) μM.

B6: hDHFR Q35S (Homo sapiens; Q36S) (protein)
chain: T1 sequence (P00374 1-187 Q36S/N65F) with F65N
**Q.** Which Km ([12]; other: hDHFR Q35S, 37.0 °C) does the source give for B6 here?
**A.** The Km was 0.7 ± 0.2 (n=4) μM.
